Results: US9738634B2, “Heterocyclic amide compound and herbicide” (SYNGENTA PARTICIPATIONS AG, priority 2013, dated 2017)

Legend:
Type in all cases: in vivo
crabgrass = assay: Test Example 3: weedkilling efficacy through soil treatment; D: crabgrass; conditions: soil treatment, treatment dosage 320 g/ha
Outline: (§1)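 Crop and weed responses were judged three weeks after a uniform surface spray of the water-diluted emulsion at the given g/ha rate. Seeds sat beneath about 1.5 cm of sterilized diluvial soil, and boxes stood in a greenhouse at 25 to 30° C.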

green foxtail = assay: Test Example 3: weedkilling efficacy through soil treatment; E: green foxtail; conditions: soil treatment, treatment dosage 320 g/ha
Outline: as §1

barnyard grass [1] = assay: Test Example 3: weedkilling efficacy through soil treatment; F: barnyard grass; conditions: soil treatment, treatment dosage 320 g/ha
From the text: Weedkilling Efficacy Test Through Soil Treatment
Sterilized diluvial soil was introduced into 21 cm long, 13 cm wide, 7 cm deep plastic boxes, and seeds of crabgrass, green foxtail, barnyard grass, wild oat, black-grass, Italian ryegrass, common wind-grass, Indian mallow, redroot pigweed, fig-leafed goosefoot, chickweed, catchweed, birds-eye speedwell, corn, soybean, rice, wheat, beet and rapeseed were each spot-sown, and covered with about 1.5 cm of soil. Next, emulsions of compounds of the present invention prepared according to compounding example 2 were diluted with water to give the specified dosages, and applied uniformly onto the soil surface with a small sprayer. The plants were grown by placing the plastic boxes in a greenhouse at 25 to 30° C., and 3 weeks after the pesticide treatment the effect on each type of plant was investigated on the basis of the assessment criteria of test example 1.
A: barnyard grass, B: bulrush, C: oval-leafed pondweed, D: crabgrass, E: green foxtail, F: barnyard grass, G: wild oat, H: black-grass, I: Italian ryegrass, J: common wind-grass, K: Indian mallow, L: redroot pigweed, M: fig-leafed goosefoot, N: chickweed, O: catchweed, p: birds-eye speedwell, a: transplanted rice, b: directly sown rice, c: corn, d: soybean, e: wheat, f: beet, g: rapeseed
Further, pesticide dosage (g/ha) indicates the concentration regulated such that treatment was with only the stated number of grams (g), when calculated per hectare (ha).

wild oat = assay: Test Example 3: weedkilling efficacy through soil treatment; G: wild oat; conditions: soil treatment, treatment dosage 320 g/ha
Outline: as §1

black-grass = assay: Test Example 3: weedkilling efficacy through soil treatment; H: black-grass; conditions: soil treatment, treatment dosage 320 g/ha
Outline: as §1

Italian ryegrass = assay: Test Example 3: weedkilling efficacy through soil treatment; I: Italian ryegrass; conditions: soil treatment, treatment dosage 320 g/ha
Outline: as §1

common wind-grass = assay: Test Example 3: weedkilling efficacy through soil treatment; J: common wind-grass; conditions: soil treatment, treatment dosage 320 g/ha
Outline: as §1

Indian mallow = assay: Test Example 3: weedkilling efficacy through soil treatment; K: Indian mallow; conditions: soil treatment, treatment dosage 320 g/ha
Outline: as §1

redroot pigweed = assay: Test Example 3: weedkilling efficacy through soil treatment; L: redroot pigweed; conditions: soil treatment, treatment dosage 320 g/ha
Outline: as §1

fig-leafed goosefoot = assay: Test Example 3: weedkilling efficacy through soil treatment; M: fig-leafed goosefoot; conditions: soil treatment, treatment dosage 320 g/ha
Outline: as §1

chickweed = assay: Test Example 3: weedkilling efficacy through soil treatment; N: chickweed; conditions: soil treatment, treatment dosage 320 g/ha
Outline: as §1

birds-eye speedwell = assay: Test Example 3: weedkilling efficacy through soil treatment; p: birds-eye speedwell; conditions: soil treatment, treatment dosage 320 g/ha
Outline: as §1

directly sown rice = assay: Test Example 3: soil treatment, effect on crop; b: directly sown rice; conditions: soil treatment, treatment dosage 320 g/ha
Outline: as §1

corn = assay: Test Example 3: soil treatment, effect on crop; c: corn; conditions: soil treatment, treatment dosage 320 g/ha
Outline: as §1

soybean = assay: Test Example 3: soil treatment, effect on crop; d: soybean; conditions: soil treatment, treatment dosage 320 g/ha
Outline: as §1

wheat = assay: Test Example 3: soil treatment, effect on crop; e: wheat; conditions: soil treatment, treatment dosage 320 g/ha
Outline: as §1

beet = assay: Test Example 3: soil treatment, effect on crop; f: beet; conditions: soil treatment, treatment dosage 320 g/ha
Outline: as §1

rapeseed = assay: Test Example 3: soil treatment, effect on crop; g: rapeseed; conditions: soil treatment, treatment dosage 320 g/ha
Outline: as §1

barnyard grass [2] = assay: Test Example 1: weedkilling efficacy, preemergent weed treatment in the submerged state; A: barnyard grass; conditions: treatment dosage 320 g/ha
Outline: (§2)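 Pre-emergence application onto floodwater (4 cm, alluvial soil) on the day of sowing, dose expressed as g/ha from diluted emulsion formulation. Weeds sown with 2.5-leaf transplanted rice as crop; plants held at 25–30 °C in greenhouse and scored against assessment criteria after 3 weeks.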

bulrush [3] = assay: Test Example 1: weedkilling efficacy, preemergent weed treatment in the submerged state; B: bulrush; conditions: treatment dosage 320 g/ha
Outline: as §2

oval-leafed pondweed [4] = assay: Test Example 1: weedkilling efficacy, preemergent weed treatment in the submerged state; C: oval-leafed pondweed; conditions: treatment dosage 320 g/ha
Outline: as §2

transplanted rice = assay: Test Example 1: preemergent weed treatment in the submerged state, effect on crop; a: transplanted rice; conditions: treatment dosage 320 g/ha
Outline: as §2

barnyard grass [5] = assay: Test Example 2: weedkilling efficacy, growth period weed treatment in the submerged state; A: barnyard grass; conditions: treatment dosage 320 g/ha
Outline: (§3)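 Weeds treated at the 1-2 leaf stage by application of diluted emulsion onto floodwater (4 cm depth, alluvial soil) at specified g/ha. Grown in greenhouse at 25 to 30° C; herbicidal effect rated three weeks after treatment.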

bulrush [6] = assay: Test Example 2: weedkilling efficacy, growth period weed treatment in the submerged state; B: bulrush; conditions: treatment dosage 320 g/ha
Outline: as §3

oval-leafed pondweed [7] = assay: Test Example 2: weedkilling efficacy, growth period weed treatment in the submerged state; C: oval-leafed pondweed; conditions: treatment dosage 320 g/ha
Outline: as §3

| Compound | D: crabgrass, weedkilling efficacy grade (crabgrass) | E: green foxtail, weedkilling efficacy grade (green foxtail) | F: barnyard grass, weedkilling efficacy grade (barnyard grass [1]) | G: wild oat, weedkilling efficacy grade (wild oat) | H: black-grass, weedkilling efficacy grade (black-grass) | I: Italian ryegrass, weedkilling efficacy grade (Italian ryegrass) | J: common wind-grass, weedkilling efficacy grade (common wind-grass) | K: Indian mallow, weedkilling efficacy grade (Indian mallow) | L: redroot pigweed, weedkilling efficacy grade (redroot pigweed) | M: fig-leafed goosefoot, weedkilling efficacy grade (fig-leafed goosefoot) | N: chickweed, weedkilling efficacy grade (chickweed) | P: birds-eye speedwell, weedkilling efficacy grade (birds-eye speedwell) | b: directly sown rice, effect on crop grade (directly sown rice) | c: corn, effect on crop grade (corn) | d: soybean, effect on crop grade (soybean) | e: wheat, effect on crop grade (wheat) | f: beet, effect on crop grade (beet) | g: rapeseed, effect on crop grade (rapeseed) | A: barnyard grass, weed kill grade (barnyard grass [2]) | B: bulrush, weed kill grade (bulrush [3]) | further results |
| --- | --- | --- | --- | --- | --- | --- | --- | --- | --- | --- | --- | --- | --- | --- | --- | --- | --- | --- | --- | --- | --- |
| CC(C)(C(=O)Nc1cc(Cl)cc(Cl)n1)N1COCN(c2ccccc2)C1=S [A-2-18, N-(4,6-dichloropyridin-2-yl)-2-methyl-2-(5-phenyl-4-thioxo-1,3,5-oxadiazinan-3-yl) propionamide] | 5 (weed kill ratio 90% or more, (practically complete withering)) | 5 (weed kill ratio 90% or more, (practically complete withering)) | 5 (weed kill ratio 90% or more, (practically complete withering)) | 3 (weed kill ratio 40% or more, less than 70%) | 5 (weed kill ratio 90% or more, (practically complete withering)) | 5 (weed kill ratio 90% or more, (practically complete withering)) | 5 (weed kill ratio 90% or more, (practically complete withering)) | 2 (weed kill ratio 20% or more, less than 40%) | 3 (weed kill ratio 40% or more, less than 70%) | 3 (weed kill ratio 40% or more, less than 70%) | 3 (weed kill ratio 40% or more, less than 70%) | 5 (weed kill ratio 90% or more, (practically complete withering)) | 5 (weed kill ratio 90% or more, (practically complete withering)) | 1 (weed kill ratio 5% or more, less than 20%) | 0 (weed kill ratio 5% or less (practically no effect)) | 0 (weed kill ratio 5% or less (practically no effect)) | 3 (weed kill ratio 40% or more, less than 70%) | 3 (weed kill ratio 40% or more, less than 70%) | – | – | – |
| CC(C)(C(=O)Nc1cc(I)ccn1)N1COCN(c2ccccc2)C1=O [A-2-10] | 5 (weed kill ratio 90% or more, (practically complete withering)) | 5 (weed kill ratio 90% or more, (practically complete withering)) | 5 (weed kill ratio 90% or more, (practically complete withering)) | 2 (weed kill ratio 20% or more, less than 40%) | 5 (weed kill ratio 90% or more, (practically complete withering)) | 5 (weed kill ratio 90% or more, (practically complete withering)) | 5 (weed kill ratio 90% or more, (practically complete withering)) | 0 (weed kill ratio 5% or less (practically no effect)) | 1 (weed kill ratio 5% or more, less than 20%) | 4 (weed kill ratio 70% or more, less than 90%) | 3 (weed kill ratio 40% or more, less than 70%) | 4 (weed kill ratio 70% or more, less than 90%) | 4 (weed kill ratio 70% or more, less than 90%) | 0 (weed kill ratio 5% or less (practically no effect)) | 0 (weed kill ratio 5% or less (practically no effect)) | 0 (weed kill ratio 5% or less (practically no effect)) | 3 (weed kill ratio 40% or more, less than 70%) | 3 (weed kill ratio 40% or more, less than 70%) | 5 (weed kill ratio 90% or more, (practically complete withering)) | 5 (weed kill ratio 90% or more, (practically complete withering)) | C: oval-leafed pondweed, weed kill grade (oval-leafed pondweed [4]): 5 (weed kill ratio 90% or more, (practically complete withering)); a: transplanted rice, effect on crop grade (transplanted rice): 1 (weed kill ratio 5% or more, less than 20%); A (barnyard grass) weedkilling efficacy grade (barnyard grass [5]): 5 (weed kill ratio 90% or more, (practically complete withering)); B (bulrush) weedkilling efficacy grade (bulrush [6]): 5 (weed kill ratio 90% or more, (practically complete withering)); C (oval-leafed pondweed) weedkilling efficacy grade (oval-leafed pondweed [7]): 5 (weed kill ratio 90% or more, (practically complete withering)) |
| Cc1cc(Cl)cc(NC(=O)C(C)(C)N2COCN(c3ccccc3)C2=O)n1 [A-2-25] | 5 (weed kill ratio 90% or more, (practically complete withering)) | 5 (weed kill ratio 90% or more, (practically complete withering)) | 5 (weed kill ratio 90% or more, (practically complete withering)) | 4 (weed kill ratio 70% or more, less than 90%) | 5 (weed kill ratio 90% or more, (practically complete withering)) | 5 (weed kill ratio 90% or more, (practically complete withering)) | 5 (weed kill ratio 90% or more, (practically complete withering)) | 5 (weed kill ratio 90% or more, (practically complete withering)) | 4 (weed kill ratio 70% or more, less than 90%) | 4 (weed kill ratio 70% or more, less than 90%) | 4 (weed kill ratio 70% or more, less than 90%) | 5 (weed kill ratio 90% or more, (practically complete withering)) | 5 (weed kill ratio 90% or more, (practically complete withering)) | 0 (weed kill ratio 5% or less (practically no effect)) | 0 (weed kill ratio 5% or less (practically no effect)) | 0 (weed kill ratio 5% or less (practically no effect)) | 4 (weed kill ratio 70% or more, less than 90%) | 3 (weed kill ratio 40% or more, less than 70%) | 5 (weed kill ratio 90% or more, (practically complete withering)) | 5 (weed kill ratio 90% or more, (practically complete withering)) | C: oval-leafed pondweed, weed kill grade (oval-leafed pondweed [4]): 5 (weed kill ratio 90% or more, (practically complete withering)); a: transplanted rice, effect on crop grade (transplanted rice): 3 (weed kill ratio 40% or more, less than 70%); A (barnyard grass) weedkilling efficacy grade (barnyard grass [5]): 5 (weed kill ratio 90% or more, (practically complete withering)); B (bulrush) weedkilling efficacy grade (bulrush [6]): 5 (weed kill ratio 90% or more, (practically complete withering)); C (oval-leafed pondweed) weedkilling efficacy grade (oval-leafed pondweed [7]): 5 (weed kill ratio 90% or more, (practically complete withering)) |
